The values below are quoted from earlier work in patent publication US20110165115A1, “SYNERGISTIC ATTRACTANTS FOR PESTIFEROUS SOCIAL INSECTS” (STERLING INTERNATIONAL INC., priority 2010, published 2011).

The structures appear in SMILES notation.

For this data set, the system named is V. vidua. To be noted: background; cited from earlier work.

As for `CCCCC/C=C\C=C\C(=O)OCC` [ethyl (E,Z)-2,4-decadienoate], the attraction entry is “attracted”.
